Results reported in publication PMC10056348, “Photocaged Histone Deacetylase Inhibitors as Prodrugs in Targeted Cancer Therapy” (Pharmaceuticals, 2023).

Key:
[1] = Photo-uncaging efficiency (HPLC after irradiation at 365 nm); assay type: physicochemical; settings: 10 min
Procedure: Photolysis (photo-uncaging) of photocaged HDACi prodrugs was performed at room temperature using a UVP CL-1000 Crosslinker (Analytik Jena GmbH, Jena, Germany) equipped with five UV-A tubes (F8T5/BL368; λmax = 365 nm; Analytik Jena GmbH, Jena, Germany). Hereafter, this entire experimental set-up will be referred to as the “UV reactor”.
For the photo-uncaging efficiency testing, 10 µL of a 1.0 mM DMSO solution of the respective compound was irradiated for 10 min using the UV reactor described above. Subsequently, 90 µL acetonitrile was added, and the samples were analyzed via HPLC. The amount of photo-cleaved HDACi was determined by comparison with a five-point calibration curve of the respective parent inhibitor, using HPLC/UV detection at an appropriate wavelength (area under the curve; area mAu*min).
2. Photouncaging Experiments
Photolysis (photouncaging) of photocaged HDACi prodrugs was performed at room temperature using an UVP CL-1000 Crosslinker (Analytik Jena GmbH, Jena, Germany) equipped with five UV-A tubes (F8T5/BL368; λmax = 365 nm; Analytik Jena GmbH, Jena, Germany). Hereafter, this entire experimental set-up will be referred to as the "UV-reactor".
For the deprotection experiments 10 µL of a 1.0 mM DMSO-solution of the respective compound were irradiated for 10 min using the UV-reactor described above. Subsequently, 90 µL acetonitrile were added and the samples were analyzed via HPLC. The amount of photo-cleaved HDACi was determined by comparison with a five-point calibration curve of the respective parent inhibitor using HPLC/UV detection at an appropriate wavelength (area under the curve; area mAu*min).
Figure S5. Calibration curve of DDK-137 (I).

[2] = design: method as in PMID 26603496; settings: cited from earlier work
[3] = system: rodent cells; design: method as in PMID 26603496; settings: cited from earlier work
[4] = system: cisplatin-resistant Cal27CisR cells; design: method as in PMID 31762274; settings: cited from earlier work
[5] = system: human squamous carcinoma cell line Cal27; design: method as in PMID 31762274; settings: cited from earlier work
[6] = system: human ovarian cancer cell line A2780; design: method as in PMID 31762274; settings: cited from earlier work

With `COc1cc(COC(=O)Nc2ccccc2NC(=O)c2ccc(CN(CC(=O)NCc3ccccc3)C(=O)c3ccc(N(C)C)cc3)cc2)c([N+](=O)[O-])cc1OC` [pc-II, 4,5-Dimethoxy-2-nitrobenzyl-{2-[4-({N-[2-(benzylamino)-2-oxoethyl]-4-(dimethylamino)benzamido}methyl)benzamido]phenyl}carbamate] as the compound, how does the “behaviour under treatment with light” value ([1]; DMSO) read?
The value was “decomposed”.

And the “yield of photo-released parent inhibitor” value ([1]; DMSO, HPLC with calibration curve)?
Its value is “did not release the parent HDACi II in significant quantities”.

And the “concentration of photo-released parent inhibitor after irradiation” value ([1]; initial concentration 100 µM)?
The value was “not detected”.

What about the melting point of the same compound?
Its melting point is 159 to 161 °C.

Which “mutagenic activity in the Ames test” value [2] does the source give for `Cc1[nH]c2ccccc2c1CCNCc1ccc(/C=C/C(=O)NO)cc1` [panobinostat] here?
Its value is “mutagenic activity”.

What about the “chromosomal aberrations in rodent cells” value [3] of the same compound?
The value was “provoke chromosomal aberrations”.

Which “mutagenic activity in the Ames test” value [2] does the source give for `O=C(CCCCCCC(=O)Nc1ccccc1)NO` [Vorinostat] here?
The value was “mutagenic activity”.

And the “chromosomal aberrations in rodent cells” value [3]?
Its value is “provoke chromosomal aberrations”.

Which “reversal of cisplatin resistance” value [4] does the source give for `CN(C)c1ccc(C(=O)N(CC(=O)NCc2ccccc2)Cc2ccc(C(=O)Nc3ccccc3N)cc2)cc1` [II, N-{4-[(2-aminophenyl)-carbamoyl]-benzyl}-N-[2-(benzylamino)-2-oxoethyl]-4-(dimethylamino)-benzamide] here?
Its value is “capable of reversing cisplatin resistance”.

What about the “antiproliferative effects in Cal27” value [5] of the same compound?
The value was “promising antiproliferative effects”.

What about the “antiproliferative effects in A2780” value [6] of the same compound?
The value was “promising antiproliferative effects”.

With `O=C(/C=C/c1cccc(S(=O)(=O)Nc2ccccc2)c1)NO` [belinostat] as the compound, how does the “mutagenic activity in the Ames test” value [2] read?
Its value is “mutagenic activity”.

And the “chromosomal aberrations in rodent cells” value [3]?
The value was “provoke chromosomal aberrations”.
